Assay [1] relates to LC3 redistribution to autophagosomes in BC cells. The assay can be described thus: GFP-LC3 autophagy assay (confocal microscopy). Format: cell-based, human. Particulars: pQCXIP-GFP-LC3 transfected cells, Eth 24 h. An excerpt: The cells were transfected with pQCXIP-GFP-LC3 plasmid using the Lipofectamine 3000 (Invitrogen; Thermo Fisher Scientific, Inc.) according to the recommended protocol by the manufacturer and then fixed in 4% paraformaldehyde. The percentage of cells with fluorescent dots representing GFP-LC3 translocation was counted. For visualization of cell nucleus, DAPI was used. Sections were observed using an Olympus laser scanning confocal microscope with imaging software (Olympus Fluoview FV-1000, Tokyo, Japan).
Figure 2 Eth induces autophagy in BC cells. (A): MCF-7, MDA-MB-231, or MDA-MB-436 cells were treated with increasing concentrations of Eth for 24 h. Western blot was performed using antibodies indicated. GAPDH was used as the loading control. (B): MCF-7 (MDA-MB-231 or MDA-MB-436) cells were treated with 2.4 µM (2.0 µM or 2.0 µM) Eth for the indicated times, and cell lysates were subjected to western blot assay. (C): MCF-7, MDA-MB-231, or MDA-MB-436 cells transfected with pQCXIP-GFP-LC3 plasmid were treated with increasing concentrations of Eth for 24 h, and assessed by immunoﬂuorescence analyses. Scale bar = 20 µm. (D): MDA-MB-231 or MDA-MB-436 cells transfected with pQCXIP-GFP-LC3 plasmid were treated with Eth (2.0 µM) and/or 3-MA (1 mM) for 24 h, and assessed by immunoﬂuorescence analyses. Scale bar = 20 µm. […] (F): MCF-7, MDA-MB-231, or MDA-MB-436 cells were treated with Eth (3.5 µM, 3.0 µM, or 3.0 µM) and/or 3-MA (1 mM) for 24 h and analyzed by MTT assay. (G): MCF-7, MDA-MB-231, or MDA-MB-436 cells were treated with Eth (2.4 µM, 2.0 µM, or 2.0 µM) and/or 3-MA (1 mM) for 24 h, and western blot was performed using antibodies indicated. *P < 0.05.
Figure 3 Eth induces autophagy through the AMPK/mTORC1 signaling. […] (D): MDA-MB-231 or MDA-MB-436 cells transfected with pQCXIP-GFP-LC3 plasmid were treated with Eth (2.0 µM) and/or CC (25 µM) for 24 h, and assessed by immunoﬂuorescence analyses. […] (G): MDA-MB-231 or MDA-MB-436 cells transfected with pQCXIP-GFP-LC3 plasmid were treated with Eth (1.0 µM or 1.6 µM) and/or Met (10 mM) for 24 h, and assessed by immunoﬂuorescence analyses. […]

Assay [2] deals with MCF-7, MDA-MB-231, and MDA-MB-436 cells. Description: Soft-agar colony formation assay. It counts as cell-based, human. The note with it: 2 weeks. The procedure:
Cells were suspended in 1 mL of L-15 or DMEM containing 0.3% low-melting-point agarose (Amresco, Cleveland, Oh, USA) and 10% FBS, and plated on a bottom layer containing 0.6% agarose and 10% FBS in 6-well plate in triplicate. After 2 weeks, plates were stained with 0.2% gentian violet and the colonies were counted under light microscope (IX70; Olympus Corporation, Tokyo, Japan) after 2 weeks.

For the next assay, the system named is T47D. Description: MTT cytotoxicity assay. Format: cell-based. Particulars: Homo sapiens, 24 h, means ± SD of quadruplicate determinations. The procedure:
Cells were seeded into 96-well plate and pre-cultured for 24 h, then treated with Eth for 24. Cell cytotoxicity was determined by MTT assay. The absorbance was measured at 490 nm by automated microplated reader (BioTek Instruments, Inc., Winooski, VT, USA), and the cell death rate was calculated as followed: inhibition rate (%) = (average A490 of the control group − average A490 of the experimental group)/(average A490 of the control group − average A490 of the blank group) × 100%. Cell viability was estimated by trypan blue dye exclusion.

SMILES strings stand for the structures.

With `CCOC1c2c(ccc3c2OCO3)-c2ccc3cc4c(cc3c2N1C)OCO4` (stereo not drawn) [Eth, Ethoxysanguinarine], the GFP-LC3 staining pattern entry in assay [1] is given as “speckled fluorescent staining pattern”. Further, the “clonogenic ability (colony formation)” value in assay [2] was “significantly inhibited the clonogenic ability”. 9.15 ± 1.83 µM corresponded to half-maximal inhibition in the assay with T47D (IC50).

The term IC50 denotes the concentration that gives 50% inhibition.

Values taken from publication PMC6960228, “Ethoxysanguinarine, a Novel Direct Activator of AMP-Activated Protein Kinase, Induces Autophagy and Exhibits Therapeutic Potential in Breast Cancer Cells” (Frontiers in Pharmacology, 2020).
